The source made the active and inactive calls.
Tests used:
[1] = molecular target: T1, Sentrin-specific protease 7 (Homo sapiens, UniProt Q9BQF6); assay type: functional;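 further: Luminescence-based dose-response confirmation of ultra-high-throughput screening hits, measuring inhibition of SENP7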
T1 sequence (Q9BQF6 whole entry): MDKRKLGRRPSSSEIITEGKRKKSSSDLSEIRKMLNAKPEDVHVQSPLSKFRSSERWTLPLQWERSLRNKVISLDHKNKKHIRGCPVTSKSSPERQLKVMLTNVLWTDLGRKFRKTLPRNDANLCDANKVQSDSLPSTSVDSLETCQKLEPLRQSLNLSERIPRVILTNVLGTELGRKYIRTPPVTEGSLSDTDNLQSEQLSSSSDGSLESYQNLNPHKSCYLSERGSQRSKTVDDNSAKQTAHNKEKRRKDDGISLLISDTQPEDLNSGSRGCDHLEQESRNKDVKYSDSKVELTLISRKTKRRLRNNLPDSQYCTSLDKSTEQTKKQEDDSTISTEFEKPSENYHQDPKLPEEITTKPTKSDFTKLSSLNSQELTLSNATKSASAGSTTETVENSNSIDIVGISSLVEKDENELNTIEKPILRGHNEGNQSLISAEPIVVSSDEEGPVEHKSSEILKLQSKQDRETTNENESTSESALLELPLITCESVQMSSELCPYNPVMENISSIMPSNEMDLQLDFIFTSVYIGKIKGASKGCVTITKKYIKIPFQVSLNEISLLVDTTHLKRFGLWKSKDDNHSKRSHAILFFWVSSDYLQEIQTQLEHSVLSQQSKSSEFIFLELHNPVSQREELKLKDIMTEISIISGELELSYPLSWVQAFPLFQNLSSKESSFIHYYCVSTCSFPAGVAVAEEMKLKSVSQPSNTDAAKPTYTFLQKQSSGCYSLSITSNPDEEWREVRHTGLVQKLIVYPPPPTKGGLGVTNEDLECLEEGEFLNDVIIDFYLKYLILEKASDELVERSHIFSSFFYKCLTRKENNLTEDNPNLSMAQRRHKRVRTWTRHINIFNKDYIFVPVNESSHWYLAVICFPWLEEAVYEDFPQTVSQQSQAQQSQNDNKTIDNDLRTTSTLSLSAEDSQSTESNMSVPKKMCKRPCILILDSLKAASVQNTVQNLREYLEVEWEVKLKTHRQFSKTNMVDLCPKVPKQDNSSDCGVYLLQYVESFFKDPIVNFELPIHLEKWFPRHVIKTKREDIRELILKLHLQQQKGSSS

[2] = molecular target: T2, Sentrin-specific protease 8 (Homo sapiens, UniProt Q96LD8); assay type: functional;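 further: luminescence read-out of SENP8 inhibition, dose-response confirmation following an ultra-high-throughput screen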
T2 sequence (Q96LD8 whole entry): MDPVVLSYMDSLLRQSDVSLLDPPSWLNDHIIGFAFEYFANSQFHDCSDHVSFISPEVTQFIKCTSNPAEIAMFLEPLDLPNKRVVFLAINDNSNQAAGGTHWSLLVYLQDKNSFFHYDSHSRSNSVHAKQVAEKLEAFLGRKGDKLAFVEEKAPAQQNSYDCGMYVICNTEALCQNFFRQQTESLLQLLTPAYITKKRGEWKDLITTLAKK

Caspase-3 = molecular target: T3, Caspase-3 (Homo sapiens, UniProt P42574); assay type: functional;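 further: Dose-response selectivity test against caspase-3 for candidate inhibitors of sentrin-specific proteases (SENPs)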
T3 sequence (P42574 whole entry): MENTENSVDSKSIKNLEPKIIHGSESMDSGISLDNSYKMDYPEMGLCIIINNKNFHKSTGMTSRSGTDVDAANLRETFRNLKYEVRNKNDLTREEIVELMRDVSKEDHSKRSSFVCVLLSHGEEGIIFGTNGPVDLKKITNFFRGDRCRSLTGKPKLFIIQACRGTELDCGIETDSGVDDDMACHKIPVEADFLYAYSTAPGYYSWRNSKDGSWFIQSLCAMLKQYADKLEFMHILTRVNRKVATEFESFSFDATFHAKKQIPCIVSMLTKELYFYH

[3] = molecular target: T4, Sentrin-specific protease 6 (Homo sapiens, UniProt Q9GZR1); assay type: functional;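 further: Luminescence-based dose-response confirmatory assay of SENP6 inhibition, following up an ultra-high-throughput screen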
T4 sequence (Q9GZR1 whole entry): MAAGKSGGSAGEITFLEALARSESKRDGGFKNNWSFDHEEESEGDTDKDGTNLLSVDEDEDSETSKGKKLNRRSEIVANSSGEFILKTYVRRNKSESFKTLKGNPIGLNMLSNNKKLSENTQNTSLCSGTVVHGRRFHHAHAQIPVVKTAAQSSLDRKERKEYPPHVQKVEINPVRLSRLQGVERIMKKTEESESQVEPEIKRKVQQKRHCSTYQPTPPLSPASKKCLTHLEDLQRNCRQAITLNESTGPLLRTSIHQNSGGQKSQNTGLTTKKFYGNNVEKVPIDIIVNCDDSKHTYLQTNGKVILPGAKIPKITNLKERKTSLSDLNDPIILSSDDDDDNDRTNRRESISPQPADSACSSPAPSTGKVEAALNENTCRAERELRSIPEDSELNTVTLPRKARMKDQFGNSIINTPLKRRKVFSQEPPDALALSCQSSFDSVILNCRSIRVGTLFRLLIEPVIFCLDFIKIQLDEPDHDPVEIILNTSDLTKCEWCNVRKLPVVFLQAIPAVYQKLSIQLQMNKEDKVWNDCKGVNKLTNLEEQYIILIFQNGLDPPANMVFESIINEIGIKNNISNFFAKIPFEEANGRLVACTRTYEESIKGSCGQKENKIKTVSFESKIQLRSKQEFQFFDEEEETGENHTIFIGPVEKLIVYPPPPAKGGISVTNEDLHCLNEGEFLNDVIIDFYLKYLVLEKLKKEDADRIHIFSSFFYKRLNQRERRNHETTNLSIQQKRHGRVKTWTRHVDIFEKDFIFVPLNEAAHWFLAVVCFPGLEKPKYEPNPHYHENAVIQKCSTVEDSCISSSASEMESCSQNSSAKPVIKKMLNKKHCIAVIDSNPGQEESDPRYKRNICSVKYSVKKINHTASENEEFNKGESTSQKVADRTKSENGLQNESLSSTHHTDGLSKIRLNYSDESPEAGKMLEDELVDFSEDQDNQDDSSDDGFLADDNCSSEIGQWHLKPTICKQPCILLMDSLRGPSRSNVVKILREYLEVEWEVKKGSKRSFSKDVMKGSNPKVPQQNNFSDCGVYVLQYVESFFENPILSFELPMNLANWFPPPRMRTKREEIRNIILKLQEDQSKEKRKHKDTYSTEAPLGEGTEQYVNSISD

BJ [4] = experiment: cells; assay type: functional, cell-based; conditions: Homo sapiens
BJ [5] = experiment: cytotoxicity toward BJ-TERT fibroblasts, dose response, cell-based, RAS-independent, luminescence (AID 1933); assay type: functional; conditions: Homo sapiens
[6] = cytotoxicity toward DRD oncogenic fibroblasts, dose response, cell-based, non-viral oncogenic, luminescence (AID 1934); assay type: functional; conditions: Homo sapiens
[7] = molecular target: T5, Microphthalmia-associated transcription factor (Homo sapiens, UniProt O75030); experiment: TRPM1 promoter luciferase signal decrease, dose response, MITF inhibitor project, cell-based, SK-MEL-5, cherry-picked, set 3 (AID 493073); assay type: functional
T5 sequence (O75030 whole entry): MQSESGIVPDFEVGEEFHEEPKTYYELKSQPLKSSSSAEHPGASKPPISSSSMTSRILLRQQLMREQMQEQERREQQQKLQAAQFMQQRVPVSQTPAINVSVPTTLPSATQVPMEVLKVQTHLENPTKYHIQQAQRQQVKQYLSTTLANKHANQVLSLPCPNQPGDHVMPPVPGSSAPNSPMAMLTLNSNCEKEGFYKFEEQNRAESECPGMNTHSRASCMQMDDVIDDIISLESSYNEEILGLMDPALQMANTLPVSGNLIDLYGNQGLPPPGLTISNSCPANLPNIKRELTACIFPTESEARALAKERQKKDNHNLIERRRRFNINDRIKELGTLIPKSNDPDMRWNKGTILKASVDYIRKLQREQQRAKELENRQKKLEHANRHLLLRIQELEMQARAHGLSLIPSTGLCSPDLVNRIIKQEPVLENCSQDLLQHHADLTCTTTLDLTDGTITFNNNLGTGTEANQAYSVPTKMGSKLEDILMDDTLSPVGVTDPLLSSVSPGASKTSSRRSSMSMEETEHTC

BJ [8] = experiment: cytotoxicity toward BJ-TERT-LT-ST fibroblasts, dose response, cell-based, RAS-independent, luminescence (AID 1935); assay type: functional; conditions: Homo sapiens;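 further: BJ fibroblasts immortalized with TERT plus LT and ST oncogenes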
BJ [9] = experiment: cytotoxicity toward Ras-transformed BJeLR fibroblasts, dose response, cell-based, alamar blue fluorescence, cherrypicked samples (AID 2631); assay type: functional; conditions: Homo sapiens;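 further: confirmatory dose-response assay in RAS-dependent BJ fibroblasts engineered with TERT, LT and ST, with cytotoxicity read by fluorescence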
INS1 = experiment: beta cell apoptosis inhibitors, cytokine rescue, dose response, luminescence, retest (AID 449756); assay type: functional, cell-based; conditions: Rattus norvegicus;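 further: cell death triggered by IL-1 beta plus TNF-alpha plus IFN-gamma mixture; protective hits raise ATP signal compared with cytokine alone wells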
HEK293 = experiment: inhibitors of LMP1-driven NF-kB reporter, dose response, cell-based, HEK293, luciferase, cherry-pick (AID 588343); assay type: functional; conditions: Homo sapiens
Jurkat = experiment: antigen receptor-induced NF-kB inhibitors, dose response, Jurkat, luciferase reporter, luminescence, B- and T-cell (AID 489004); assay type: functional, cell-based; conditions: Homo sapiens;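 further: NF-kB luciferase reporter Jurkat cells stimulated with PMA plus ionomycin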
[10] = molecular target: T6, Rac GTPase-activating protein 1 (Homo sapiens, UniProt Q9H0H5); experiment: MgcRacGAP GTPase-activating activity inhibitors, confirmation, biochemical, ADP Hunter fluorescence, primary and confirmatory (AID 624330); assay type: functional
T6 sequence (Q9H0H5 whole entry): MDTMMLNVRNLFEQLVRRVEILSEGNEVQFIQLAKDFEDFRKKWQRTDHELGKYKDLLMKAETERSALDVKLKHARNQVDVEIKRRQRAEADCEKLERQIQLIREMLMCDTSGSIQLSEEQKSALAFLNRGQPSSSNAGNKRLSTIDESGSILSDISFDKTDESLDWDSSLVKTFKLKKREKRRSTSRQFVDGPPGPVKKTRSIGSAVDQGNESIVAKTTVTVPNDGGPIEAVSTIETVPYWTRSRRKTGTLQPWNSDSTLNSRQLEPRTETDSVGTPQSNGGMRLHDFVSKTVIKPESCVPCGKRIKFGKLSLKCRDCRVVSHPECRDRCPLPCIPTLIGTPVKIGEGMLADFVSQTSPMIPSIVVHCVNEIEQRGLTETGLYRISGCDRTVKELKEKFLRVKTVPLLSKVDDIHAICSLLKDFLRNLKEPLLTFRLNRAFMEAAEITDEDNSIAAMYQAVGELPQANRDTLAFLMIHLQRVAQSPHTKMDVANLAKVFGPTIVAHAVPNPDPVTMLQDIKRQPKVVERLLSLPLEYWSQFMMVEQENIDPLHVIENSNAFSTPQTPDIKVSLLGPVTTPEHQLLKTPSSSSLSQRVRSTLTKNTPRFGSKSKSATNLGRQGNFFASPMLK

[11] = cytotoxicity in HEK-293T NF-kB-Luc cells, dose response, cytotoxicity control for B/T-cell NF-kB inhibitor project, cell-based, uHTS hits (AID 489019); assay type: functional;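 further: IC50 reflects cytotoxicity as loss of cell viability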
Large T antigen = Large T antigen (Simian virus 40, UniProt P03070); assay type: functional, Betapolyomavirus macacae;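 further: Confirmatory-stage PubChem screen for compounds that inhibit SV40 T antigen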
[12] = LGR2 antagonists, dose response, cell-based, HEK293, CRE-luciferase reporter, cherry pick, set 2 (AID 743343); assay type: functional;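 further: transfected cells were stimulated with diluted bursicon conditioned medium after compound addition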
[13] = A549 cell cytotoxicity, dose response, cytotoxicity control, plate reader, cherry-pick, antagonist series (AID 743412); assay type: functional, cell-based
[14] = molecular target: T7, Nuclear receptor subfamily 0 group B member 1 (Homo sapiens, UniProt P51843); assay type: functional, cell-based;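 further: HEK293T cells transfected with SF-1 and DAX-1 plus StAR promoter luciferase reporter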
T7 sequence (P51843 whole entry): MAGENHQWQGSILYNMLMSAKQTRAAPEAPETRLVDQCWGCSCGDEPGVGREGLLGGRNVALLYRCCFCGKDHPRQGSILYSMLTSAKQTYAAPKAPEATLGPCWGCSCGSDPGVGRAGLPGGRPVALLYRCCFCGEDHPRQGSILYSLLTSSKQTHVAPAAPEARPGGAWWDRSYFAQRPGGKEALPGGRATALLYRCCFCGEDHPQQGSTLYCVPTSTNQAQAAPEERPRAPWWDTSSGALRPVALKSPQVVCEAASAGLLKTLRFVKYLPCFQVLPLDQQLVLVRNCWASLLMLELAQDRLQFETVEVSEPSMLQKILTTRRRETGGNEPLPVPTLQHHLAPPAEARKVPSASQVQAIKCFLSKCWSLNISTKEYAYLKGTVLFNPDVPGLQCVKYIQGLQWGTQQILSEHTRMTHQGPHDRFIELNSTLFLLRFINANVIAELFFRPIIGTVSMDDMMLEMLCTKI

[15] = MC4R antagonists, dose response, counter-screen for LGR2 antagonist project, cell-based, plate reader, cherry pick (AID 743444); assay type: functional;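 further: transfected HEK 293 cells stimulated with alpha-MSH peptide; potency of inhibitors of the alpha-MSH evoked signal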
cells = assay type: functional, cell-based

Chain of Large T antigen (P03070 whole entry): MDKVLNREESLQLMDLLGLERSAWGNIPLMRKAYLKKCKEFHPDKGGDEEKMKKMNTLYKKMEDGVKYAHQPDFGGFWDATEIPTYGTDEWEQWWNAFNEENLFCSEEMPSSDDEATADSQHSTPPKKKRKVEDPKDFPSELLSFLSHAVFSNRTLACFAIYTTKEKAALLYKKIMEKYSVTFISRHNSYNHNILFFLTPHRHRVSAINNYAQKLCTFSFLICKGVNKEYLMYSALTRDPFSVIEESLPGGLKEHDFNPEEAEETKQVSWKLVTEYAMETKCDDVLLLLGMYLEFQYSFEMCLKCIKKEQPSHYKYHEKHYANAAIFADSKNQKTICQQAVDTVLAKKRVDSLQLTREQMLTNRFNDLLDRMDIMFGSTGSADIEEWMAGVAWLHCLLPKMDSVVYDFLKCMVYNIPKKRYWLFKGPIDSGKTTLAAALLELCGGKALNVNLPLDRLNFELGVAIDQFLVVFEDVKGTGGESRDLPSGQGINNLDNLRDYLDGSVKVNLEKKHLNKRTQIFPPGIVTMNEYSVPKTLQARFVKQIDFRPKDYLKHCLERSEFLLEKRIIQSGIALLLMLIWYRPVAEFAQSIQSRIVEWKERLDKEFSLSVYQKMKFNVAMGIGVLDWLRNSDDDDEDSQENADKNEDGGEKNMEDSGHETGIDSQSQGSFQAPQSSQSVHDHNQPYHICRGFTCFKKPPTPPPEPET

CC(C)(C)C(=O)OCc1nc(-c2ccc(F)cc2)cs1
IC50 [1]: 7.4 µM (active)
IC50 [2]: 55.3 µM (active)
IC50 (Caspase-3): 28.3 µM (active)
IC50 [3]: 28.9 µM (active)

COc1cc(OC)cc(C(=O)N[C@H](C(=O)Nc2nc3ccccc3[nH]2)C(C)C)c1
EC50 (BJ [4]): 2.73 µM (active)
EC50 (BJ [5]): 1.48 µM (inconclusive)
EC50 [6]: 1.91 µM (active)
AC50 [7]: 2.44 µM (active)
EC50 (BJ [8]): 1.51 µM (inconclusive)
EC50 (BJ [9]): 0.553 µM (active)

Cc1ccc(CNc2c([N+](=O)[O-])nn(-c3ccc4c(c3)OCCO4)[n+]2[O-])cc1
IC50 [1]: 4.7 µM (active)
IC50 [2]: > 100 µM (inactive)
IC50 (Caspase-3): 66.5 µM (active)
IC50 [3]: > 100 µM (inactive)

O=S(=O)(c1ccc(NC(=S)NCc2cccnc2)cc1)N1CCCCC1
EC50 (BJ [4]): 0.594 µM (inconclusive)
EC50 (BJ [5]): > 150 µM (not active)
EC50 [6]: 20.5 µM (active)
EC50 (BJ [8]): 0.767 µM (active)
EC50 (BJ [9]): 0.623 µM (active)
AC50 (INS1): 1.11 µM (active)

COc1cc(/C=N/NC(=S)Nc2cccc(C(=O)O)c2)ccc1O
AC50 (HEK293): 1.9 µM (active)
IC50 (Jurkat): 7.92 µM (active)
IC50 [10]: 44.9 µM (active)
IC50 [11]: > 80 µM (inactive)
IC50 (Large T antigen): 22.1 µM (active)

CC(=O)Oc1cccc(/C=C2\Sc3ccccc3C2=O)c1
IC50 [1]: 3.15 µM (active)
IC50 [2]: 3.32 µM (active)
IC50 (Caspase-3): 24.9 µM (active)
IC50 [3]: 3.99 µM (active)

CCOc1ccc(C(=O)Nc2nnc(SCC(=O)NCC3CCCO3)s2)cc1 (stereo not given)
AC50 [12]: 3.43 µM (active)
AC50 [13]: > 52 µM (inactive)
AC50 (HEK293): 1.52 µM (active)
IC50 [14]: > 67.5 µM (inactive)
AC50 [15]: 3.95 µM (active)
IC50 (cells): > 67.5 µM (inactive)

From ChEMBL document CHEMBL1201862, “PubChem BioAssay data set” (2004)
